# Values of other authors in US20160193276A1 (Teva Pharmaceutical Industries, Ltd., priority 2012, published 2016).
# What was measured:
# [1] = tested on: mice; details: orally administered
# [2] = tested on: patients with relapsing multiple sclerosis; details: administered orally
# [3] = tested on: rats; details: orally administered
# [4] = tested on: MS patients; details: 20 mg/day subcutaneous (s.c.)
substance,measurement,setting,value
"L-glutamic acid polymer with L-alanine, L-lysine, L-tyrosine, acetate (salt) [glatiramer acetate]",Induction of EAE,[1],inhibited
same,Relapse rate or other clinical MRI parameters of disease activity,[2],did not affect
same,Induction of EAE,[3],inhibited
same,Total number of enhancing lesions as measured by MRI,[4],reduce
